Reference: ChEMBL document CHEMBL3132759, “Design and synthesis of a novel series of cyclohexyloxy-pyridyl derivatives as inhibitors of diacylglycerol acyl transferase 1” (Medchemcomm, 2013)
Values after ≈ are worked out from the molar mass of the structure shown.

Key:
[1] = target: T1, Diacylglycerol O-acyltransferase 1 (Homo sapiens, UniProt O75907); test: Inhibition of human DGAT1
T1 sequence (O75907 whole entry): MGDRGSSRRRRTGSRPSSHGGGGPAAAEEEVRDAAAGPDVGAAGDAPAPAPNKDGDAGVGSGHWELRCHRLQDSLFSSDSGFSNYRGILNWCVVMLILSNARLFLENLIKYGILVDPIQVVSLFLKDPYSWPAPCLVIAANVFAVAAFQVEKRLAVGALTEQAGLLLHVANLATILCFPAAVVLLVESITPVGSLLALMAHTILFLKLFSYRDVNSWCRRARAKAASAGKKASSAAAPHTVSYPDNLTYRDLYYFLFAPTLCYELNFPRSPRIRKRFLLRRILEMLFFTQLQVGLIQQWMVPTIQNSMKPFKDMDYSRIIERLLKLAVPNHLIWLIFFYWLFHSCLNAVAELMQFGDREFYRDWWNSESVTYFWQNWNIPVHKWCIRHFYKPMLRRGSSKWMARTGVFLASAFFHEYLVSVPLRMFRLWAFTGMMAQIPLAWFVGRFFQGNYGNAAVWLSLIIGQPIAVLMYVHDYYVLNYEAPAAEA

[2] = target: T2, Sterol O-acyltransferase 1 (Homo sapiens, UniProt P35610); test: Inhibition of human ACAT1
T2 sequence (P35610 whole entry): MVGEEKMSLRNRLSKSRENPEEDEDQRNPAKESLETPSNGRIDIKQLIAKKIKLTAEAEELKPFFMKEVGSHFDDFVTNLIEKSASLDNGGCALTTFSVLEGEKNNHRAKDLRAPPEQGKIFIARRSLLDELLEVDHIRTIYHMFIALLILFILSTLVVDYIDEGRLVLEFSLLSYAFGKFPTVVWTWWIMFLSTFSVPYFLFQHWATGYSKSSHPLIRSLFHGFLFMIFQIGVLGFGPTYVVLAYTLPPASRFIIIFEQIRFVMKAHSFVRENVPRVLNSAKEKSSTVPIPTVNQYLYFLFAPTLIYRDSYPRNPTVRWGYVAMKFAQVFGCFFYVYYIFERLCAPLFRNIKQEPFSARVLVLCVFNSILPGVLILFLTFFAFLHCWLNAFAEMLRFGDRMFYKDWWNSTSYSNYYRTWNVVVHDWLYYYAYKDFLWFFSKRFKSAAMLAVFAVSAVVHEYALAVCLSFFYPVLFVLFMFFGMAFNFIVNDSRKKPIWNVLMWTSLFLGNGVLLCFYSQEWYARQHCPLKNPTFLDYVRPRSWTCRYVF

[3] = Thermodynamic solubility of the compound after 24 hrs at pH 7.4; format: physicochemical; settings: buffer, read-out: Therm_solubility
Hepatocyte = test: Intrinsic clearance in human hepatocytes; format: ADME, cell-based
[4] = Lipophilicity, logD of the compound; format: physicochemical; settings: octanol/water
Plasma = test: Fraction unbound in rat plasma; format: ADME, cell-free
[5] = Apparent permeability in MDCK cells assessed as permeability from apical to basolateral side; format: ADME, cell-based, Canis lupus familiaris; settings: dog
[6] = Clearance in rat; format: ADME, organism-based; settings: in vivo
Rattus norvegicus [7] = organism: Rattus norvegicus; test: Unbound clearance in rat; format: ADME, organism-based; settings: in vivo
[8] = target: T3, Diacylglycerol O-acyltransferase 2 (Homo sapiens, UniProt Q96PD7); test: Inhibition of human DGAT2
T3 sequence (Q96PD7 whole entry): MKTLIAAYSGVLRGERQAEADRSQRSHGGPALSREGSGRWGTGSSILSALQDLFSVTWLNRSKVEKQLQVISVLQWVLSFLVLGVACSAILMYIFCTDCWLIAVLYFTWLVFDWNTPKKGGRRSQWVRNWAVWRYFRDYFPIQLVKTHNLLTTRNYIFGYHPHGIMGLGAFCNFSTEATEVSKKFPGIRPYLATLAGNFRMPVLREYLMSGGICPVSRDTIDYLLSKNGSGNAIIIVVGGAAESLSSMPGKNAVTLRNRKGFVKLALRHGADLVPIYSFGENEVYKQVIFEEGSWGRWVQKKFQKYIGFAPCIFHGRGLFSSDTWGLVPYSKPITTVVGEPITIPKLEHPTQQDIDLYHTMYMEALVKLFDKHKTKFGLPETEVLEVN

Rattus norvegicus [9] = organism: Rattus norvegicus; test: Reduction in circulating plasma triglyceride levels in rat by oral lipid tolerance test; format: functional, organism-based
Cytochrome P450 2C19 = Cytochrome P450 2C19 (Homo sapiens, UniProt P33261); test: Inhibition of CYP2C19 (unknown origin); format: ADME
[10] = target: Voltage-gated inwardly rectifying potassium channel KCNH2 (Homo sapiens, UniProt Q12809); test: Inhibition of human ERG
[11] = Oral bioavailability in rat; format: ADME, organism-based; settings: in vivo
Cytochrome P450 2C9 = Cytochrome P450 2C9 (Homo sapiens, UniProt P11712); test: Inhibition of CYP2C9 (unknown origin); format: ADME
Cytochrome P450 1A2 = target: T4, Cytochrome P450 1A2 (Homo sapiens, UniProt P05177); test: Inhibition of CYP1A2 (unknown origin); format: ADME
T4 sequence (P05177 whole entry): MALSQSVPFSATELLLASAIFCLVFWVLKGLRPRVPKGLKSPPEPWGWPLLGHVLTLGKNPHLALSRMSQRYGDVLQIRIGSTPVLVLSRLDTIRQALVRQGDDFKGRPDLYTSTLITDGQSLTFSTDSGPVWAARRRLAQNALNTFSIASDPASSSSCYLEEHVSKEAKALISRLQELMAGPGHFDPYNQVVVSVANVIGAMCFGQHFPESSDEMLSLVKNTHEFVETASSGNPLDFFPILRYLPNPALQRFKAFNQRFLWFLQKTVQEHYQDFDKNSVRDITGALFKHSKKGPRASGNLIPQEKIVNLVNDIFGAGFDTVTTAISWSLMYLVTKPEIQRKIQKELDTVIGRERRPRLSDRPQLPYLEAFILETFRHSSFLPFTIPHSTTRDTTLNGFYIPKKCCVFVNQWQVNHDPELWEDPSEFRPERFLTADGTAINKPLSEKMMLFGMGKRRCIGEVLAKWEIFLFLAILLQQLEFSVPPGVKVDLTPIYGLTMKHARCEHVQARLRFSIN

Rattus norvegicus [12] = organism: Rattus norvegicus; test: Reduction in circulating plasma triglyceride levels in rat by oral lipid tolerance test by PK/PD analysis; format: functional, organism-based
[13] = Clearance in dog; format: ADME, organism-based, Canis lupus familiaris; settings: in vivo
[14] = target: T5, Diacylglycerol O-acyltransferase 1 (Rattus norvegicus, UniProt Q9ERM3); test: Inhibition of DGAT1 in rat microsomes
T5 sequence (Q9ERM3 whole entry): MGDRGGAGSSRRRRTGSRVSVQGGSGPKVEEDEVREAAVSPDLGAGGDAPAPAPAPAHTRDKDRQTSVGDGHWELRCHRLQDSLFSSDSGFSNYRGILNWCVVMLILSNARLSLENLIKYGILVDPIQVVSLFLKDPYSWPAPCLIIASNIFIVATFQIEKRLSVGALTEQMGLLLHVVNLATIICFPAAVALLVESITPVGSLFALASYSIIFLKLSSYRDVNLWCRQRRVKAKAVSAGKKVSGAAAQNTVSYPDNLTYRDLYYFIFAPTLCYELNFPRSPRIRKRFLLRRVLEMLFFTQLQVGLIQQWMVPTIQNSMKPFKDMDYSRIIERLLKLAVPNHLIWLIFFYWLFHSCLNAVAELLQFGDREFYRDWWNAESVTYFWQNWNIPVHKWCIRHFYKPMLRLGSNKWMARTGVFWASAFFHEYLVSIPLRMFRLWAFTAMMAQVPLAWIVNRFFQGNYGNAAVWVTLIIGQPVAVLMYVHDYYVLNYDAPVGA

Canis familiaris = organism: Canis familiaris; test: Unbound clearance in dog; format: ADME, organism-based, Canis lupus familiaris; settings: in vivo
[15] = target: T1, Diacylglycerol O-acyltransferase 1; test: Inhibition of DGAT1 in human HuTu80 cells assessed as reduction in triglyceride levels; format: cell-based
Cytochrome P450 2D6 = Cytochrome P450 2D6 (Homo sapiens, UniProt P10635); test: Inhibition of CYP2D6 (unknown origin); format: ADME
[16] = Oral bioavailability in dog; format: ADME, organism-based, Canis lupus familiaris; settings: in vivo
Cytochrome P450 3A4 = Cytochrome P450 3A4 (Homo sapiens, UniProt P08684); test: Inhibition of CYP3A4 (unknown origin); format: ADME
[17] = Apparent permeability in human Caco2 cells assessed as permeability from apical to basolateral side; format: ADME, cell-based; settings: Caco-2

Cytochrome P450 2D6, sequence (P10635 whole entry): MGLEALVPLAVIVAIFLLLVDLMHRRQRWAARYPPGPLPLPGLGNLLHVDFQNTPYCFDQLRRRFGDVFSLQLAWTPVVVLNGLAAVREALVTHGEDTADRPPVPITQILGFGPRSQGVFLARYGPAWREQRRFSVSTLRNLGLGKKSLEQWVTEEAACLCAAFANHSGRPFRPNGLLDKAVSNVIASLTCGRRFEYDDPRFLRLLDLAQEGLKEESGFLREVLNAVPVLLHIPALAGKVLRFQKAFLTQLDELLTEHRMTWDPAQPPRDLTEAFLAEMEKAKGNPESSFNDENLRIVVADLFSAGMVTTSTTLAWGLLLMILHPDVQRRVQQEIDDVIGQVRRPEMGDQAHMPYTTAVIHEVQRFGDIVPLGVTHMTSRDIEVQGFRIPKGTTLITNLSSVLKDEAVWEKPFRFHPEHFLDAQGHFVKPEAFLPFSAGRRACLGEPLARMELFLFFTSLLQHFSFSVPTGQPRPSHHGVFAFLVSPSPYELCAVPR
Cytochrome P450 2C9, sequence (P11712 whole entry): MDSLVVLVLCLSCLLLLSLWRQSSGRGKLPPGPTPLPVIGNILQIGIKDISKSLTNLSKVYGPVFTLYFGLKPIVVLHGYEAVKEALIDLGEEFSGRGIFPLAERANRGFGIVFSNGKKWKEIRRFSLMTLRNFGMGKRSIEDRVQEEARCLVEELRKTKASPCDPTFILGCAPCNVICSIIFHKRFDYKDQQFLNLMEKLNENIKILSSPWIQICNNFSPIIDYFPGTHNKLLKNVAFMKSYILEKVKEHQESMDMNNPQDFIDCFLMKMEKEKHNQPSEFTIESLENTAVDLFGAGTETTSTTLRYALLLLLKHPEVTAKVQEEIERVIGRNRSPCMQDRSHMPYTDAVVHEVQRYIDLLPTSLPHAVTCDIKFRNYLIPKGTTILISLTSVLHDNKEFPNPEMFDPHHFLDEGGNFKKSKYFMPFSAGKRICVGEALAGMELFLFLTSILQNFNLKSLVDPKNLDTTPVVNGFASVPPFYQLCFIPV
Cytochrome P450 3A4, sequence (P08684 whole entry): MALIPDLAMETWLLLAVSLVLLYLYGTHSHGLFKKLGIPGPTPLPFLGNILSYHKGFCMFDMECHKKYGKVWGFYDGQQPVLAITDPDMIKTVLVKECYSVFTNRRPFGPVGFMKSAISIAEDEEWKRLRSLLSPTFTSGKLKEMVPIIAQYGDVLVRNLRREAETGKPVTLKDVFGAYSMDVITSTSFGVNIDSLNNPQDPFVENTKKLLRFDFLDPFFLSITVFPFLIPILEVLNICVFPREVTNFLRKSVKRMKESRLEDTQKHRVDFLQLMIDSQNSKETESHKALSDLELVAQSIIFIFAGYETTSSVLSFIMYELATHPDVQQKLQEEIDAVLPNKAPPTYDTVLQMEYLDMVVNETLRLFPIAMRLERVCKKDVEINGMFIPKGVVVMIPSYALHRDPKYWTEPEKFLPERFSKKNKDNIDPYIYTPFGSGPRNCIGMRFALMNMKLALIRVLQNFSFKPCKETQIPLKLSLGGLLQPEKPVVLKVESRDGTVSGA
Voltage-gated inwardly rectifying potassium channel KCNH2, sequence (Q12809 whole entry): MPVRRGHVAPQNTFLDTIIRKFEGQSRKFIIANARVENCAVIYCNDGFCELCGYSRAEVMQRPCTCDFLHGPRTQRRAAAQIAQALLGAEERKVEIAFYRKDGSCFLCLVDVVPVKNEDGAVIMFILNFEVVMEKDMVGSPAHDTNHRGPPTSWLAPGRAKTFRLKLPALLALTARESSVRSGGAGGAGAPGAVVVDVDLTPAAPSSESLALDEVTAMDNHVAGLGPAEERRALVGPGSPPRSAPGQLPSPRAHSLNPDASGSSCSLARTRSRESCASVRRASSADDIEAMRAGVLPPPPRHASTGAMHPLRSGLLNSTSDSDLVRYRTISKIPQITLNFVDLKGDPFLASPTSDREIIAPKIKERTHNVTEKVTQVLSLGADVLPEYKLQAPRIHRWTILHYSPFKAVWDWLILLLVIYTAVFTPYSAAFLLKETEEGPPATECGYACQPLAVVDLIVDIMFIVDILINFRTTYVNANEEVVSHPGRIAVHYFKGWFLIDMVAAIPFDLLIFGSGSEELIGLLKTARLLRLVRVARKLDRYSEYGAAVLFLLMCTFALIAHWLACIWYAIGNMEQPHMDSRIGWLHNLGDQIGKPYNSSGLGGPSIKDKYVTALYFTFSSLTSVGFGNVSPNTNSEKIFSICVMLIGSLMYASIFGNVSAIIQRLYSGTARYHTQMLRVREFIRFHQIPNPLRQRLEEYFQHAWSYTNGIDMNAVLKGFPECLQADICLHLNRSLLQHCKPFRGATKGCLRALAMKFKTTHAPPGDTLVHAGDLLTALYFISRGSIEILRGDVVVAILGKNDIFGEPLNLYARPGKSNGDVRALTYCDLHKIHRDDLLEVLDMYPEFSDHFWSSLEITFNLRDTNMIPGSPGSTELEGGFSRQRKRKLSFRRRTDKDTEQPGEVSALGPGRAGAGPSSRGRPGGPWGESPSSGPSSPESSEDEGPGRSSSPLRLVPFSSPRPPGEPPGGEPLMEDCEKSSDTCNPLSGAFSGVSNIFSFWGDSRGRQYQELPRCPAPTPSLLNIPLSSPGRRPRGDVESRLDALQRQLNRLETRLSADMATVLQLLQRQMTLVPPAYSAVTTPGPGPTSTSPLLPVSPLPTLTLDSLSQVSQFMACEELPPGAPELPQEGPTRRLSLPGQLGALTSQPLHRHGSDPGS
Cytochrome P450 2C19, sequence (P33261 whole entry): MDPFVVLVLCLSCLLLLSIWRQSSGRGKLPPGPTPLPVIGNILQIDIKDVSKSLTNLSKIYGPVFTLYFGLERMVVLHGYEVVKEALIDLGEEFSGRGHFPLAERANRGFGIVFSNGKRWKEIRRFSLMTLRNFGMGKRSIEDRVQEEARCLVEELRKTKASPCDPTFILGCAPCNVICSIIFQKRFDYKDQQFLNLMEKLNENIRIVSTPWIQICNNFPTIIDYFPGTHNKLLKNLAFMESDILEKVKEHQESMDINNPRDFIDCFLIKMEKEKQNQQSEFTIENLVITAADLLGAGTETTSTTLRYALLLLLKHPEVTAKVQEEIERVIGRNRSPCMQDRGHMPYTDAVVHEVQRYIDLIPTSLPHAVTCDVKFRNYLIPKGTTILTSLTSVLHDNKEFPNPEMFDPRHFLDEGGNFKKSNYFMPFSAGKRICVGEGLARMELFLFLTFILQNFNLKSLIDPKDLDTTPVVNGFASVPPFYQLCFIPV

| Structure (SMILES) | IC50 [1] | IC50 [2] | solubility thermodynamic at 24 h [3] | Intrinsic clearance (CLint) (Hepatocyte) | logD [4] | Papp A→B [5] | clearance [6] | CL free (Rattus norvegicus [7]) | bioavailability [11] | clearance [13] | CL free (Canis familiaris) | bioavailability [16] | other results |
| --- | --- | --- | --- | --- | --- | --- | --- | --- | --- | --- | --- | --- | --- |
| O=C(Nc1ccc(O[C@H]2CC[C@@H](C(=O)O)CC2)cc1)c1nnc(Nc2ccc(F)c(F)c2)o1 | 4 nM | 1100 nM | 3 µM (≈ 1.38 µg/mL) | – | – | – | – | – | – | – | – | – | – |
| O=C(O)c1cccc(Oc2ccc(NC(=O)c3nnc(Nc4ccc(F)c(F)c4)o3)cc2)c1 | – | – | 6 µM (≈ 2.71 µg/mL) | < 22 µL/min/mg | 2.3 | – | – | – | – | – | – | – | Fu (Plasma): < 0.01% |
| O=C(O)C[C@H]1CC[C@@H](Oc2ccc(NC(=O)c3nnc(Nc4ccc(F)c(F)c4)o3)cn2)CC1 | 7 nM | 1500 nM | 4 µM (≈ 1.89 µg/mL) | < 2 µL/min/mg | 2.2 | 5.1 ×10⁻⁶ cm/s | 0.7 mL/min/kg | 230 mL/min/kg | 82% | 2.3 mL/min/kg | 100 mL/min/kg | 35% | IC50 [8]: 28000 nM; inhibition (Rattus norvegicus [9]): Dose-dependent effect; IC50 (Cytochrome P450 2C19): > 10000 nM; IC50 [10]: > 30000 nM; IC50 (Cytochrome P450 2C9): > 10000 nM; IC50 (Cytochrome P450 1A2): > 10000 nM; IC50 (Rattus norvegicus [12]): 0.2 nM; IC50 [14]: 0.9 nM; IC50 [15]: 4 nM; IC50 (Cytochrome P450 2D6): > 10000 nM; IC50 (Cytochrome P450 3A4): > 10000 nM |
| O=C(O)C[C@H]1CC[C@H](c2ccc(NC(=O)c3nnc(Nc4ccc(F)c(F)c4)o3)cc2)CC1 | – | – | 2 µM (≈ 0.913 µg/mL) | – | – | – | – | – | – | – | – | – | – |
| O=C(Nc1ccc(O[C@H]2CC[C@@H](C(=O)O)CC2)nc1F)c1nnc(Nc2ccc(F)c(F)c2)o1 | 3 nM | 4800 nM | 15 µM (≈ 7.16 µg/mL) | < 2 µL/min/mg | 1.9 | 16 ×10⁻⁶ cm/s | 3.6 mL/min/kg | 600 mL/min/kg | – | 5.1 mL/min/kg | 300 mL/min/kg | – | – |

The next lines start with results.

| IC50 [1] | IC50 [2] | solubility thermodynamic at 24 h [3] | Intrinsic clearance (CLint) (Hepatocyte) | logD [4] | Papp A→B [5] | clearance [6] | CL free (Rattus norvegicus [7]) | bioavailability [11] | clearance [13] | CL free (Canis familiaris) | bioavailability [16] | Structure (SMILES) | other results |
| --- | --- | --- | --- | --- | --- | --- | --- | --- | --- | --- | --- | --- | --- |
| 3 nM | 310 nM | 69 µM (≈ 34.1 µg/mL) | < 2 µL/min/mg | 1.9 | – | 0.4 mL/min/kg | 200 mL/min/kg | 85% | 6.5 mL/min/kg | 1700 mL/min/kg | 76% | O=C(Nc1ccc(O[C@H]2CC[C@@H](C(=O)O)CC2)cc1F)c1nnc(Nc2cc(F)c(F)cc2F)o1 | Papp A→B [17]: 33 ×10⁻⁶ cm/s |
| – | – | 11 µM (≈ 5.44 µg/mL) | – | 2.3 | – | – | – | – | – | – | – | O=C(Nc1ccc(O[C@H]2CC[C@@H](C(=O)O)CC2)c(F)c1)c1nnc(Nc2cc(F)c(F)cc2F)o1 | – |
| – | – | 43 µM (≈ 20.5 µg/mL) | < 2 µL/min/mg | 1.9 | 11 ×10⁻⁶ cm/s | 1.1 mL/min/kg | 470 mL/min/kg | 115% | 11 mL/min/kg | 920 mL/min/kg | 23% | O=C(Nc1ccc(O[C@H]2CC[C@@H](C(=O)O)CC2)cc1)c1nnc(Nc2cc(F)c(F)cc2F)o1 | Fu (Plasma): 0.4% |
